This is an account of results in patent publication US11666658B2, “Rifamycin analogs and antibody-drug conjugates thereof” (Regeneron Pharmaceuticals, Inc., priority 2018, dated 2023).

Test [1] deals with S. aureus MSRA strain NRS384. The test is described as follows: S. aureus IV advanced disseminated infection mouse model (8 day model, Balb/c mice), kidney burden. It counts as in vivo. As for the experimental part: To test the efficacy of anti-S. aureus Ab-antibiotic ncADCs of the disclosure in combination therapy with standard of care vancomycin in vivo, two different 8 day intravenous disseminated infection models was performed. […] S. aureus MSRA strain NRS384 was grown overnight in Tryptic soy broth (TSB) and sub-cultured to mid-logarithmic phase. Bacteria were then washed twice with PBS and resuspended in PBS at a concentration of 1.5×10^8 cfu/mL. Balb/c mice were then infected intravenously through the tail vein with 100 uL of the bacterial suspension, for a final infectious dose of […]. In the first study, mice were treated either vancomycin alone, an isotype control antibody plus vancomycin, an isotype control Ab-ncADC (Isotype control-36) plus vancomycin, an anti-WTA antibody plus vancomycin, an anti-WTA Ab-Antibiotic ncADC (anti-WTA Ab-Antibiotic ncADC-36), or a different anti-WTA Ab-Antibiotic ncADC (anti-WTA Ab-Antibiotic ncADC-25) plus vancomycin. Mice were also treated either vancomycin alone, an isotype control antibody plus vancomycin, an isotype control Ab-Antibiotic ncADC (Isotype control Ab-Antibiotic ncADC-36) plus vancomycin, an anti-Protein A antibody plus vancomycin, or an anti-Protein A Ab-Antibiotic ncADC (anti-Protein A Ab-Antibiotic ncADC-36).
In the second study, mice were treated either vancomycin alone, an isotype control antibody plus vancomycin, an isotype control Ab-Antibiotic ncADC (Isotype control Ab-Antibiotic ncADC-36) plus vancomycin, a second isotype control Ab-Antibiotic ncADC (Isotype control Ab-Antibiotic ncADC-25) plus vancomycin, a third isotype control Ab-Antibiotic ncADC (Isotype control Ab-Antibiotic ncADC-21) plus vancomycin, an anti-WTA antibody plus vancomycin, an anti-WTA Ab-Antibiotic ncADC (anti-WTA Ab-Antibiotic ncADC-36), a second anti-WTA Ab-Antibiotic ncADC (anti-WTA Ab-Antibiotic ncADC-25) plus vancomycin, or a third anti-WTA Ab-Antibiotic ncADC (anti-WTA Ab-Antibiotic ncADC-21) plus vancomycin. In all studies, for treatment groups that included vancomycin, it was dosed from three to seven days post infection at 110 mg/kg subcutaneously twice daily. For treatment groups that included antibodies and ncADCs, they were administered four days after infection subcutaneously at 2 mg/kg for the first study or 5 mg/kg for the second study. A no treatment infected control and an uninfected control were included in each of the studies. Mice were monitored for weight loss and body conditioning score throughout the infection. At eight days post infection, mice were euthanized, and the S. aureus kidney burden was quantified. For quantification, the kidneys were homogenized followed by enumeration of colony forming units through serial dilution in PBS and plating onto trypticase soy agar plates. Data points represent the kidney burden from individual mice tested.

The test system of test [2] is S. aureus MSRA strain NRS384. In words: S. aureus IV disseminated infection mouse model (4 day model, Balb/c mice), kidney burden. The following applies: 4 day infection model, mAb or conjugate 1 mg/kg, with vancomycin treatment, limit of detection 250 cfu. The format is in vivo. As for the experimental part:
S. aureus MSRA strain NRS384 was grown overnight in Tryptic soy broth (TSB) and sub-cultured to mid-logarithmic phase. Bacteria were then washed twice with PBS and resuspended in PBS at a concentration of 1.5×10^8 cfu/mL. […] Mice were monitored for weight loss and body conditioning score throughout the infection. […] For quantification, the kidneys were homogenized followed by enumeration of colony forming units through serial dilution in PBS and plating onto trypticase soy agar plates.

`CN[C@H](CC(C)C)C(=O)N[C@H]1C(=O)N[C@@H](CC(N)=O)C(=O)N[C@H]2C(=O)N[C@H]3C(=O)N[C@H](C(=O)N[C@H](C(=O)O)c4cc(O)cc(O)c4-c4cc3ccc4O)[C@H](O)c3ccc(c(Cl)c3)Oc3cc2cc(c3O[C@@H]2O[C@H](CO)[C@@H](O)[C@H](O)[C@H]2O[C@H]2C[C@](C)(N)[C@H](O)[C@H](C)O2)Oc2ccc(cc2Cl)[C@H]1O` [vancomycin]: the Median cfu/kidney pair is recorded as 7.25E+06 cfu/kidney pair in test [1] (Balb/c mice, 8 day model, first study (Table 37, anti-Protein A), mAb or conjugate 2 mg/kg, with vancomycin treatment); 1.88E+06 cfu/kidney pair in test [1] (Balb/c mice, 8 day model, second study (Table 38), mAb or conjugate 5 mg/kg, with vancomycin treatment); 7.25E+06 cfu/kidney pair in test [1] (in vivo); 4.38E+05 cfu/kidney pair in test [2]. Besides, in test [1] (first study, vancomycin alone 110 mg/kg subcutaneously twice daily day 3 to 7, kidneys at day 8), the “reduction of S. aureus kidney burden” value is recorded as 1-2 logs. In test [1] (second study, vancomycin alone), the “reduction of S. aureus kidney bacterial burden” value was 1-2 logs.
